The nature of data set [1]: Metabolic stability in mouse liver microsomes (in vitro t1/2). Type of data set: in vitro ADME. As to conditions: for half-life at 2 µM: mouse liver microsomes 0.5 mg/mL, 2 μM compound, read-out: Mouse microsome t1/2, min; for Mouse microsome % 60 min: mouse liver microsomes. The protocol: (§1) The following are assays that may be used to evaluate the metabolic stability of compounds of Formula (I) in human, rat, or mouse microsomes. The assays follow a common procedure recited below. 1. […] Two separated experiments were performed as follows. a) With NADPH: 10 μL of 20 mg/mL liver microsomes and 40 μL of 10 mM NADPH were added to the incubations. […] The final concentration of microsomes was 0.5 mg/mL. 3. The reaction was started with the addition of 4 μL of 200 μM control compound or test compound solutions. Verapamil was used as positive control in this study. The final concentration of test compound or control compound was 2 μM. 4. Aliquots of 50 μL were taken from the reaction solution at 0, 15, 30, 45 and 60 min. […] Samples were centrifuged at 3,220 g for 40 minutes. A 90 μL aliquot of the supernatant was mixed with 90 μL of ultra-pure H2O and then used for LC-MS/MS analysis. 5. Data analysis. All calculations were carried out using Microsoft Excel. Peak areas were determined from extracted ion chromatograms. The slope value, k, was determined by linear regression of the natural logarithm of the remaining percentage of the parent drug vs. incubation time curve. The in vitro half-life (in vitro t1/2) was determined from the slope value: in vitro t1/2=−(0.693)/k.

The nature of data set [2]: Metabolic stability in human liver microsomes (in vitro t1/2). Type of data set: in vitro ADME. As to conditions: for half-life at 2 µM: human liver microsomes 0.5 mg/mL, 2 μM compound, read-out: Human microsome t1/2, min; for Human microsome % 60 min: human liver microsomes. The protocol:
as §1

For another data set, the target named is MCT1 (Homo sapiens (Human), UniProt P53985). Put plainly: Assay 4: MCT1-mediated lactate transport in BT20 breast cancer cells. Conditions: Table 27. Type of data set: cell-based. Summed up: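 Transport started with 10 mM L-lactate on BCECF-loaded BT20 cells in Tyrode's Solution, pH 7.4. Dye loading: BCECF-AM ester (30 mM DMSO stock), 5 min at 37° C, then one wash.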

In the next data set the target is MCT4 (Homo sapiens (Human), UniProt O15427). The experiment in a line: Assay 3: MCT4-mediated lactate transport in MDA-MB-231 breast cancer cells. Conditions: MDA-MB-231 cells; lactate transport. Format: cell-based. Summed up: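 Read-out is BCECF fluorescence tracking the intracellular pH shift from MCT4-mediated lactate/H+ co-transport. Before measurement, MDA-MB-231 cells take up BCECF-AM for 5 min at 37° C, then are washed into Tyrode's Solution, pH 7.4.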
MCT4, sequence (O15427 whole entry, looked up): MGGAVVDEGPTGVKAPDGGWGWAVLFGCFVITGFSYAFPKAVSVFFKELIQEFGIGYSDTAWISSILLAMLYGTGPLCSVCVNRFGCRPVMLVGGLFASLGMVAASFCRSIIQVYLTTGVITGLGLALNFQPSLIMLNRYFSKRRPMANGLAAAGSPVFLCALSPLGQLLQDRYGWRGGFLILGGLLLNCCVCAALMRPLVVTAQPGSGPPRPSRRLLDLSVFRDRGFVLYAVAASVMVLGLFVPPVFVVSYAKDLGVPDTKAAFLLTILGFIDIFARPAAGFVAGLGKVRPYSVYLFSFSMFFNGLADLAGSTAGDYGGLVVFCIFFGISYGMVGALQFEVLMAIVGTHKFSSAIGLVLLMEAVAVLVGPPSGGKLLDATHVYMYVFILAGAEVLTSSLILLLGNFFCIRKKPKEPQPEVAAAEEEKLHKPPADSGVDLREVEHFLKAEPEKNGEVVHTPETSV
MCT4, sequence (P35613 whole entry partner, looked up): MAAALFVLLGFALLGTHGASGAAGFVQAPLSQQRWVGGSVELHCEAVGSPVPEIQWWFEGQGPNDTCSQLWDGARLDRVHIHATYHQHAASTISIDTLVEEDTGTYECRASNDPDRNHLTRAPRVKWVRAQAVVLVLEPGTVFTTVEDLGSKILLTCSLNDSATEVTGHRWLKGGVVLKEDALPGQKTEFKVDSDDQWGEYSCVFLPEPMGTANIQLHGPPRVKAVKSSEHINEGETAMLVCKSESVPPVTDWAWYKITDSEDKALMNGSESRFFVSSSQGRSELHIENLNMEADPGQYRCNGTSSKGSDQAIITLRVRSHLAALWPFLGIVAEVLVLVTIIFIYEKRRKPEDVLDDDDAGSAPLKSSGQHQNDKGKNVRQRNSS

MCT1, sequence (P53985 whole entry): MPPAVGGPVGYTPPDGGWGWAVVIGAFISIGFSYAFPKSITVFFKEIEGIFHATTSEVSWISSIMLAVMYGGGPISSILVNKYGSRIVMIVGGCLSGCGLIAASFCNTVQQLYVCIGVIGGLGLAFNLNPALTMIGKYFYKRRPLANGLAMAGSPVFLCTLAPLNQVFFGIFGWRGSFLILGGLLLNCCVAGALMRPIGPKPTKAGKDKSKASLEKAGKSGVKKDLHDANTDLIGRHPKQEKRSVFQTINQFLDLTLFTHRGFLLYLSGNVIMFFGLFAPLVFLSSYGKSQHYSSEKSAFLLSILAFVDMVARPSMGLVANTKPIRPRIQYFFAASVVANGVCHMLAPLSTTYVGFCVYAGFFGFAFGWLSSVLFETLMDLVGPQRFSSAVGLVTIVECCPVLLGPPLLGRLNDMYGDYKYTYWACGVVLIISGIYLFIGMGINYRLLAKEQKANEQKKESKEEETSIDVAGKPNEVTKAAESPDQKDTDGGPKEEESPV
MCT1, sequence (P35613 140-385 partner): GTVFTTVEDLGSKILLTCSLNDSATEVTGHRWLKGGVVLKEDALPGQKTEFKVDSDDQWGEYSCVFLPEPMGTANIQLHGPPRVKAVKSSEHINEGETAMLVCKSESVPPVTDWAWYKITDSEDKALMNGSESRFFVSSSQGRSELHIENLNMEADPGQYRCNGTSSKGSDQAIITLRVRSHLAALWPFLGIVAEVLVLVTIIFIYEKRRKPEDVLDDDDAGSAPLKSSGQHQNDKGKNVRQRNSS

Turning to `CC(C)COc1cccc(-c2cc(COC(C)(C)C(=O)O)nn2Cc2ccccc2Cl)c1` [Example 27, 2-([1-[(2-Chlorophenyl)methyl]-5-(3-(2-methyl-propoxy)phenyl)1H-pyrazol-3-yl]methoxy)-2-methylpropanoic acid], in data set [1], the half-life at 2 µM amounted to 61 min and the “Mouse microsome % 60 min” value is 50%. In data set [2], the half-life at 2 µM turned out to be 50 min and the “Human microsome % 60 min” value amounted to 43%.

For the molecule `CC(C)Oc1cccc(-c2cc(COC(C)(C)C(=O)O)nn2Cc2ccccc2Cl)c1` [Example 35, 2-([1-[(2-Chlorophenyl)methyl]-5-(3-isopropoxyphenyl)1H-pyrazol-3-yl]methoxy)-2-methylpropanoic acid], in data set [1], the half-life at 2 µM came to 35 min and the “Mouse microsome % 60 min” value was 31%. Further, in data set [2], the half-life at 2 µM was 115 min and the “Human microsome % 60 min” value is 67%.

With `COc1cccc(-c2cc(COC(C)(C)C(=O)O)nn2Cc2ccccc2OC)c1` [Example 36, 2-([5-(3-Methoxyphenyl)-1-[(2-methoxyphenyl)methyl]1H-pyrazol-3-yl]methoxy)-2-methylpropanoic acid], in data set [1], the half-life at 2 µM stood at 1200 min and the “Mouse microsome % 60 min” value is 99%. For the same molecule, in data set [2], the half-life at 2 µM was 290 min and the “Human microsome % 60 min” value amounted to 85%.

`COc1cccc(-c2cc(COC(C)(C)C(=O)O)nn2Cc2ccccc2N(C)C)c1` [Example 38, 2-([1-[(2-(Dimethylamino)phenyl]methyl]-5-(3-methoxyphenyl)1H-pyrazol-3-yl]methoxy)-2-methylpropanoic acid]: in data set [1], the half-life at 2 µM was found to be 79 min and the “Mouse microsome % 60 min” value is on record as 61%. In data set [2], the half-life at 2 µM was 76 min and the “Human microsome % 60 min” value stood at 56%.

For `CC(C)(OCc1cc(-c2cccc(OC3CC3)c2)n(Cc2ccccc2Cl)n1)C(=O)O` [Example 39, 2-([1-[(2-Chlorophenyl)methyl]-5-[3-(cyclopropoxy)phenyl]1H-pyrazol-3-yl]methoxy)-2-methylpropanoic acid], in data set [1], the half-life at 2 µM came out at 370 min and the “Mouse microsome % 60 min” value came to 88%. Also, in data set [2], the half-life at 2 µM was found to be 380 min and the “Human microsome % 60 min” value was 89%.

Take `COc1cccc(-c2c(C)c(COC(C)(C)C(=O)O)nn2Cc2ccccc2Cl)c1` [Example 54, 2-({1-[(2-Chlorophenyl)methyl]-5-(3-methoxyphenyl)-4-methyl-1H-pyrazol-3-yl)methoxy)-2-methylpropionic acid]: in data set [1], the half-life at 2 µM worked out at 760 min and the “Mouse microsome % 60 min” value amounted to 95%. In addition, in data set [2], the half-life at 2 µM was determined as 78 min and the “Human microsome % 60 min” value stood at 59%.

Regarding `COc1cccc(-c2cc(COC(C)(C)C(=O)O)nn2-c2ccccc2Cl)c1` [Example 57, 2-([1-(2-chlorophenyl)-5-(3-methoxy-phenyl)-1H-pyrazol-3-yl]methoxy)-2-methylpropanoic acid], in data set [1], the half-life at 2 µM is greater than 2000 min and the “Mouse microsome % 60 min” value was determined as 100%. Moreover, in data set [2], the half-life at 2 µM was 190 min and the “Human microsome % 60 min” value amounted to 80%.

With `COc1ccc(-c2cc(COC(C)(C)C(=O)O)nn2Cc2ccccc2Cl)s1` [Example 64], in data set [1], the half-life at 2 µM came out at 270 min and the “Mouse microsome % 60 min” value came out at 84%. Further, in data set [2], the half-life at 2 µM was found to be 200 min and the “Human microsome % 60 min” value was found to be 82%.

Take `COc1csc(-c2cc(COC(C)(C)C(=O)O)nn2Cc2ccccc2Cl)c1` [Example 65, 2-([1-[(2-Chlorophenyl)methyl)-5-(4-methoxythien-2-yl)-1H-pyrazol-3-yl]methoxy)-2-methylpropanoic acid]: in data set [1], the half-life at 2 µM was found to be 560 min and the “Mouse microsome % 60 min” value is 92%. For the same molecule, in data set [2], the half-life at 2 µM was determined as 140 min and the “Human microsome % 60 min” value was 78%.

For `Cc1nn(C)c2sc(-c3cc(COC(C)(C)C(=O)O)nn3Cc3ccccc3Cl)cc12` [Example 265, 2-([1-[(2-Chlorophenyl)methyl]-5-[1,3-dimethyl-1H-thieno[2,3-c]pyrazol-5-yl]-1H-pyrazol-3-yl)methoxy)-2-methylpropanoic acid], the IC50 came out at 84000 nM at MCT1 and 5.6 nM against MCT4.

For orientation: IC50 means the concentration that inhibits the measured activity by half. Low values mean greater potency in that assay, high ones weaker potency in that assay.

The values are drawn from patent publication US10214492B2, “Heterocyclic inhibitors of MCT4” (Vettore, LLC, priority 2016, dated 2019).
